Reference: patent US8232313B2 (Georgia Health Sciences University, priority 2003, dated 2012)
“Also recorded” adds a separate entry of the source. One block for each compound: values may come before it.

Assays:
[1] = Comparative plasma pharmacokinetics of the stereoisomers of 1-MT; format: in vivo, mice; details: for time to peak plasma concentrations: after PO administration, 50 mg/kg
Experimental: Comparative pharmacokinetic studies were initiated to characterize the in vivo disposition of the stereoisomers of 1-MT when administered by different routes, to determine the oral bioavailability, and to define the plasma concentrations associated with effective dosing regimens. Studies were conducted in conventional mice after IV, PO and SC doses of 50 mg/kg, and IP doses of 25 mg/kg, 50 mg/kg, and 100 mg/kg. In addition, plasma concentrations of 1-MT were determined in nude mice with implanted timed-release pellets designed to release the DL isomer for 7 days, and the D isomer for 14 days.

B16F10 melanomas = assay: Established B16F10 melanoma in mice, 1MT with radiation or cyclophosphamide; format: in vivo, mouse
Experimental: FIGS. 11A-11D. Administration of 1-MT enhances immune-mediated host anti-tumor effect when administered with radiation or cyclophosphamide. Mice were injected subcutaneously (SQ) with 4×10^4 B16F10 cells. […] Control mice received vehicle pellets without drug.
Not unexpected, given that the tumor had already been allowed to create tolerance in the host.

[2] = system: Lewis Lung carcinoma (LLC); details: administration of 1-MT; cited from earlier work
IDO [3] = assay: Recall MLR of LN cells from recipients of TDLN DCs, 1MT added to the MLR; details: responders from recipients of TDLN DCs
Experimental: Inguinal LN cells from recipient mice were assayed for functional responsiveness using MLRs stimulated by irradiated C57BL/6 (H-2K^b-positive) splenocytes.

IDO [4] = target: IDO (Mus musculus, UniProt P28776); assay: MLR with sorted tumor-draining LN cells (pDCs) as stimulators and BM3 responder T cells; details: 250 uM
Experimental: T cell activation in MLR. BM3 responder T cells were prepared from spleen by nylon-wool enrichment. Stimulators (sorted DCs or unfractionated TDLN) were mixed with 1×10^5 BM3 responder cells in 200 ul IMDM at the ratios shown in each figure. After 3 days, proliferation was measured by 4-hour thymidine incorporation assay.
MLRs were thus “two-way” reactions. However, the small number of sorted DCs used as stimulators contributed negligible proliferation compared to the large population of TCR-transgenic responder cells. Since the relevant readout was dominant suppression, the two-way MLR design presented no problem in interpretation.
Pooled draining LN cells (4 nodes) were stained and fractionated by 4-color MoFlo cell sorting for the two populations shown in the schematic of FIG. 5B. All other cells were collected in a third fraction. Each fraction was then used as stimulators in MLRs, using 50,000 BM3 T cells as responders. The number of stimulators used in each MLR was adjusted to be the same as would have been present in 50,000 cells of the original LN preparation, based on the measured percentage of each sorted fraction. Thus, 500 cells of the sorted B220^+ CD11c^+ fraction were added per well, and 1500 cells of the CD25^+ CD4^+ fraction, while 48,000 cells of the “all other” fraction were used.

[5] = target: indoleamine 2,3-dioxygenase (IDO) (Homo sapiens, UniProt P14902); assay: Allogeneic mixed-leukocyte reaction (MLR) with IDO-expressing human DCs, T cell proliferation by thymidine incorporation; details: 250 uM in culture medium
Experimental: After five days, proliferation was measured by four hour thymidine incorporation assay. “V”-bottom culture wells (Nunc) were used in MLR assays to maximize cell-cell contact.
DCs were used as stimulators in allogeneic mixed-leukocyte reactions (MLRs), with allogeneic lymphocytes as responder cells.

[6] = Pilot tissue biodistribution of D and L isomers after DL racemic infusion; format: in vivo, Mice; details: DL racemic 10 mg/day, 72 hour infusion
Text: The results noted with spleen are particularly relevant because it is a lymphoid organ, and thus likely to be similar to tumor-draining lymph nodes.

IDO (Mus musculus, UniProt P28776), sequence (P28776 whole entry): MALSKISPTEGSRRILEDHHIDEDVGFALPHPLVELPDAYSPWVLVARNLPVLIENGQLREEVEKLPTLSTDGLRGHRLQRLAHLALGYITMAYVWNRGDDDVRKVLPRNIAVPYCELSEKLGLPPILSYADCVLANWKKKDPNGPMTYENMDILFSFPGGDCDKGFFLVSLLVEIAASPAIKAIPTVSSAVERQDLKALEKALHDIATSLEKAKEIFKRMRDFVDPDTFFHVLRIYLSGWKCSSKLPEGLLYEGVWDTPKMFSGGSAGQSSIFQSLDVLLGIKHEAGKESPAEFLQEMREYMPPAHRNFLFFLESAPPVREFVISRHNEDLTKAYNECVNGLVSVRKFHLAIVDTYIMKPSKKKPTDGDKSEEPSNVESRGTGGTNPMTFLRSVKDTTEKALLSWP
indoleamine 2,3-dioxygenase (IDO), sequence (P14902 whole entry, the tested form may be a part): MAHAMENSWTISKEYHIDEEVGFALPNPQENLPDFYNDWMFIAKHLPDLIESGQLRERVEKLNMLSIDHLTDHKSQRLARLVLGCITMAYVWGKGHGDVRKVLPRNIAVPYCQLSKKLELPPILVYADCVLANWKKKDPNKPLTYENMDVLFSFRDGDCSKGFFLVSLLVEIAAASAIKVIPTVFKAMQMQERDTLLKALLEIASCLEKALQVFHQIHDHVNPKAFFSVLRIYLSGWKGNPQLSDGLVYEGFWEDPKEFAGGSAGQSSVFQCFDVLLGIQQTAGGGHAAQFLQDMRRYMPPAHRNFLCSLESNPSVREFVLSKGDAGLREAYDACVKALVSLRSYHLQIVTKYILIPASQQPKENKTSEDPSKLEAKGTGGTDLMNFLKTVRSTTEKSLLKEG

- time to peak plasma concentrations [1]: 2 h
SMILES: Cn1cc(C[C@H](N)C(=O)O)c2ccccc21 [L 1-MT, reference compound]

SMILES: Cn1cc(C[C@H](N)C(=O)O)c2ccccc21 (racemic) [1MT, 1-methyl-tryptophan]
- tumor growth, 1MT with total-body radiation (B16F10 melanomas; DL racemic 20 mg/day plus 500 cGy single dose): significantly reduce tumor growth
- tumor growth, 1MT with cyclophosphamide (B16F10 melanomas; DL racemic 20 mg/day plus cyclophosphamide 150 mg/kg x 1 dose): significantly reduce tumor growth
- effect of 1MT alone on established tumor (B16F10 melanomas; DL racemic form, 20 mg per mouse per day, SQ pellets, from day 7): no effect
- effect of 1MT over cyclophosphamide alone in RAG1-knockout hosts (B16F10 melanomas; immunodeficient (RAG1-knockout) hosts): no enhancing effect
- effect of 1MT alone, replicated radiation studies (B16F10 melanomas; replicate of FIG. 11A design): no effect
- tumor outgrowth [2]: significantly delayed
- effect of 1MT on suppression in recall MLRs (IDO [3]): no effect; also recorded: not restored

- effect of 10x L-tryptophan with pDCs from IDO-knockout hosts (IDO [4]; IDO-KO): no effect
- DC-mediated inhibition of T cell proliferation on addition of supra-physiologic tryptophan [5]: completely reversed
SMILES: N[C@@H](Cc1c[nH]c2ccccc12)C(=O)O [L-tryptophan]
- suppression by pDCs with excess L-tryptophan (IDO [4]; 10x): abrogated; also recorded: abrogates suppression

- time to peak plasma concentrations [1]: 2 h
- apparent volume of distribution ([1]; relative to L isomer): relatively greater
- distribution into muscle, D and L isomers [6]: equivalent distribution
- distribution into spleen, D and L isomers [6]: equivalent distribution
- level in brain, D versus L isomer [6]: lower levels
- level in plasma, D versus L isomer [6]: lower levels
SMILES: Cn1cc(C[C@@H](N)C(=O)O)c2ccccc21 [1-methyl-D-tryptophan]
- effect of combination with radiation versus radiation alone, replicated studies (B16F10 melanomas; replicate of FIG. 11A design): enhanced effect over radiation alone
- accumulation in liver, D versus L isomer ([6]; SQ pellets, initial results): at least equal, and possibly preferential, accumulation
